{"source": "patent US11548878B2", "about": "“Emopamil binding protein binding agent and use thereof” (FUJIFILM Toyama Chemical Co., Ltd., priority 2017, dated 2023)", "biological_target": "T1, EBP (Homo sapiens, UniProt Q15125)", "T1 construct": "A membrane fraction was collected from sigma-1 receptor-deficient human neuroblastoma (SH-SY5Y) cells; endogenous in cells; host or cells: sigma-1 receptor-deficient SH-SY5Y human neuroblastoma cells (membrane fraction)", "T1 sequence (Q15125 2-230 limits assumed)": "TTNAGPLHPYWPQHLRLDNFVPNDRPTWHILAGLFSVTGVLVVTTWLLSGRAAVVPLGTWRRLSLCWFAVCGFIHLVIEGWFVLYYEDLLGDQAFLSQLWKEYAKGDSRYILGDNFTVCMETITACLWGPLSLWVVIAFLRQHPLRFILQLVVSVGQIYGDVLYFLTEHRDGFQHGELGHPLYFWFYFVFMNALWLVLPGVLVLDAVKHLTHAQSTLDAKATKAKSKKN", "assay": "EBP Binding Test (Test Example 1): tritium-labeled Compound A binding to membrane fractions of sigma-1 receptor-deficient SH-SY5Y cells with EBP deleted or overexpressed", "procedure": "The binding ability of Compound A to EBP was examined. The test was carried out in accordance with Receptor Signal Transduction Protocols, pp. 135-164 (ISBN 978-1-61779-125-3).\nA membrane fraction was collected from sigma-1 receptor-deficient human neuroblastoma (SH-SY5Y) cells, in which EBP was deleted or was overexpressed. Inactivated fetal bovine serum was added to a liquid medium DMEM (Dulbecco's Modified Eagle's Medium) to a final concentration of 10%, and then, a Penicillin-Streptomycin solution (10000 U/mL Penicillin-10000 μg/mL Streptmycin) was added to the medium to a final concentration of 100 U/mL Penicillin-100 μg/mL Streptmycin. The SH-SY5Y cells were cultured in the thus prepared medium.\nThe method of preparing a membrane fraction is as follows. The cells cultured to a subconfluent state were recovered using a cell scraper, and were then suspended in a 50 mM Tris-HCl (pH=7.4) buffer, followed by disintegrating the cells with an ultrasonic disintegrator. The disintegrated solution was centrifuged (1000 g, 10 minutes), and the supernatant was then ultracentrifuged (28000 rpm, 30 minutes). Thereafter, the obtained precipitate was re-suspended in a 50 mM Tris-HCl (pH=7.4) buffer to obtain a membrane fraction. Regarding the thus prepared membrane fraction, the protein concentration was measured according to a BCA method, and the membrane fraction was then adjusted to a concentration of approximately 1 mg/mL. […]\nThe receptor binding test method is as follows. […] Thereafter, a liquid scintillation cocktail was added thereto, and the radiation dose (CPM) in each well was then measured using a scintillation counter.\nThe specific binding ability of Compound A to EBP was determined by subtracting the radiation dose of the control (Non-specific binding) from the radiation dose derived from the tritium-labeled Compound A at each concentration (Total binding). Since the amount of the protein used was different depending on the cell membrane, CPM per μg of the membrane fraction protein used in the reaction was calculated (CPM/protein amount)."}
{"smiles": "OC1CN(CCCOCCc2ccc3sccc3c2)C1", "note": "[Compound A]", "values": [{"measurement": "affinity for EBP", "setting": "conclusion from FIG. 1 and FIG. 2", "value": "high affinity"}, {"measurement": "radiation dose (specific binding, CPM/protein amount) in sigma-1 receptor-deficient and EBP-deficient cells compared with sigma-1 receptor-deficient cells", "setting": "membrane fraction of SH-SY5Y cells, tritium-labeled Compound A 0.05-100.0 nM, 37° C. for 2 hours, FIG. 1", "value": "lower"}, {"measurement": "radiation dose (specific binding, CPM/protein amount) in sigma-1 receptor-deficient and EBP-overexpressing cells compared with sigma-1 receptor-deficient cells", "setting": "membrane fraction of SH-SY5Y cells, tritium-labeled Compound A 0.05-100.0 nM, 37° C. for 2 hours, FIG. 2", "value": "higher"}]}
